# In US4421687A, “Macbecin derivatives” (priority 1981, dated 1983):
# Key:
# Staphylococcus aureus = assay: antibacterial activity (MIC) against Staphylococcus aureus; assay type: cell-based
# Bacillus subtilis = assay: antibacterial activity (MIC) against Bacillus subtilis; assay type: cell-based
# [1] = acute toxicity (LD50), mouse, intraperitoneal; assay type: in vivo
SMILES,MIC (Staphylococcus aureus) [µg/mL],MIC (Bacillus subtilis) [µg/mL],"LD50 ([1]; in vivo, ip, intraperitoneal, acute toxicity) [mg/kg]","acute toxicity as compared with Macbecin I and II ([1]; intraperitoneal, compared with Macbecin I and II)","acute toxicity (in words) ([1]; ip, conclusion from the LD50)"
COC1CC(C)C(OC)c2cc(O)cc(c2O)NC(=O)C(C)=CC=CC(C)C(OC(N)=O)C(C)=CC(C)C1O (centres unmarked) [E-3-R],50 to 100,50 to 100,–,–,–
COC1CC(C)C(OC)C2=CC(=O)C=C(NC(=O)C(C)=CC=CC(C)C(OC(N)=O)C(C)=CC(C)C1O)C2=O (centres unmarked) [E-3],50 to 100,50 to 100,–,–,–
COC1c2cc(O)cc(c2O)NC(=O)/C(C)=C/C=C\C(C)C(OC(N)=O)/C(C)=C/C(C)C(OC)C(O)CC1C (centres unmarked) [E-5-R],50 to 100,50 to 100,100 to 200,lower toxicity,low toxicity
COC1C2=CC(=O)C=C(NC(=O)C(C)=CC=CC(C)C(OC(N)=O)C(C)=CC(C)C(OC)C(O)CC1C)C2=O (centres unmarked) [E-5],50 to 100,50 to 100,–,–,–
